Literature values in patent publication US20010031278A1, “Sustained release oxycodone formulations with no fed/fast effect” (priority 1996, published 2001).

Settings: gastric fluid (pH about 1) vs intestinal fluid (pH about 7.5)

COc1ccc2c3c1O[C@H]1C(=O)CC[C@@]4(O)[C@@H](C2)N(C)CC[C@]314.Cl [Oxycodone hydrochloride]
solubility at low vs high pH: more soluble in gastric fluid (pH about 1) than in intestinal fluid (pH about 7.5)
